Key:
[1] = system: cyclin D1; test: Western blot of Cyclin D1 in SW480 whole cell lysates; format: cell-based, human; details: SW480 cells, 25 μM, beginning at 4 hours, increasing at 24 hours
Procedure: FIG. 5. COMPOUND 1 inhibits the expression of cyclin D1. • A. Cyclin D1 levels are decreased with COMPOUND 1 treatment. Western blot analysis was performed on 25 μg of SW480 whole cell lysates treated for 4, 8, or 24 hours with either 25 μM of COMPOUND 1 or control (0.5% DMSO). Immunoblotting was performed using anti-Cyclin D1 antibodies (Santa Cruz Biotechnology Inc.). • B. In vivo occupancy of cyclin D1 and c-myc promoters by CBP and p300. […] ChIP assays were performed on promoter of c-myc from SW480 cells which was treated for 8 hours with COMPOUND 1 (25 μM) or control (0.5% DMSO). CBP (AC-26, a generous gift from Dr. David Livingston, Harvard University, Boston, Mass.) or p300 (C-20, Santa Cruz Biotechnology Inc.) specific antibodies were used to evaluate the promoter occupancy by CBP or p300 in presence of COMPOUND 1 or control (DMSO) treatment.
Immune complexes, from above, were separated on SDS-PAGE followed by transfer to immobilon-P membranes (PVDF) from (Millipore, Bedford, Mass.). […] Immunoblots were analyzed using an ECL detection kit (Amersham Pharmacia Biotech).
The β-actin gene was used to normalize the data. The ΔCycle of Threshold (CT) values were determined by subtracting the average values of each set from the corresponding average values obtained for the β-actin gene. […] Cyclin D1 protein levels in cells were also evaluated. […]

[2] = system: caspase-3/7 in HCT116 cells; test: Caspase-3/7 activity assay, HCT116 cells; format: cell-based, human; details: 25 μM, 24 hours, compared to CCD18Co cells
Procedure: FIG. 6. • A. COMPOUND 1 arrests cells in G1. FACS analysis was performed on SW480 (lower panel) and HCT116 (upper panel) cells treated for 24 hours with either COMPOUND 1 (25 μM) (right) or control (0.5% DMSO (left). 5.5×10^6 cells were fixed and stained with propidium iodide (PI). G0/G1, S, and G2/M are indicated by arrows. • B. COMPOUND 1 selectively activates caspases in colon carcinoma cell lines. SW480 and HCT116 (left graph) cells (10^5) along with the normal colonocytes, CCD18Co (right graph) were treated with either control (0.5% DMSO) or COMPOUND 1 (25 μM). 24 hours post treatment, cells were lysed and the caspase-3/7 enzymatic activities were measured. Relative fluorescence units (RFU) were calculated by subtracting the unit values of the blank (control, without cells) from the treated samples (COMPOUND 1 or control) and plotted.
SW480, HCT116, and CCD18Co cells were plated at 10^5 cells per well (96-well plates) for 24 hours prior to treatment. 25 μM of COMPOUND 1 or control (0.5% DMSO) was added to each well. 24 hours post treatment, cells were lysed and caspase activity was measured using a caspase-3/7 activity kit (Apo-One Homogeneous caspase-3/7 assay, #G77905, Promega). Relative fluorescence units (RFU) were obtained by subtracting the unit values of the blank (control, without cells) from the experimental measured values. […]

**Q.** With `O=C1C(Cc2ccc(O)cc2)N2C(=O)CCN(C(=O)NCc3ccccc3)C2CN1Cc1cccc2ccccc12` (centres unmarked) [COMPOUND 1] as the molecule, how does the “Level of Cyclin D1 protein” value [1] read?
**A.** clear reduction

**Q.** What about the Caspase-3/7 activity [2] of the same molecule?
**A.** specifically and significantly activated
